Measured values: patent US9745320B2, “Five-and-six-membered heterocyclic compound, and preparation method, pharmaceutical composition and use thereof” (SHANGHAI CHEMEXPLORER CO., LTD., priority 2013, dated 2017)

Key:
Format in all cases: biochemical
JAK3 = target: T1, JAK3 (Homo sapiens, UniProt P52333); experiment: JAK 3 enzymatic inhibitory activity IC50 assay (Caliper conversion rate); conditions: Km ATP, 28° C., 1 hour; read-out: JAK 3 enzymatic inhibitory activity IC50
T1 sequence (P52333 1-1124): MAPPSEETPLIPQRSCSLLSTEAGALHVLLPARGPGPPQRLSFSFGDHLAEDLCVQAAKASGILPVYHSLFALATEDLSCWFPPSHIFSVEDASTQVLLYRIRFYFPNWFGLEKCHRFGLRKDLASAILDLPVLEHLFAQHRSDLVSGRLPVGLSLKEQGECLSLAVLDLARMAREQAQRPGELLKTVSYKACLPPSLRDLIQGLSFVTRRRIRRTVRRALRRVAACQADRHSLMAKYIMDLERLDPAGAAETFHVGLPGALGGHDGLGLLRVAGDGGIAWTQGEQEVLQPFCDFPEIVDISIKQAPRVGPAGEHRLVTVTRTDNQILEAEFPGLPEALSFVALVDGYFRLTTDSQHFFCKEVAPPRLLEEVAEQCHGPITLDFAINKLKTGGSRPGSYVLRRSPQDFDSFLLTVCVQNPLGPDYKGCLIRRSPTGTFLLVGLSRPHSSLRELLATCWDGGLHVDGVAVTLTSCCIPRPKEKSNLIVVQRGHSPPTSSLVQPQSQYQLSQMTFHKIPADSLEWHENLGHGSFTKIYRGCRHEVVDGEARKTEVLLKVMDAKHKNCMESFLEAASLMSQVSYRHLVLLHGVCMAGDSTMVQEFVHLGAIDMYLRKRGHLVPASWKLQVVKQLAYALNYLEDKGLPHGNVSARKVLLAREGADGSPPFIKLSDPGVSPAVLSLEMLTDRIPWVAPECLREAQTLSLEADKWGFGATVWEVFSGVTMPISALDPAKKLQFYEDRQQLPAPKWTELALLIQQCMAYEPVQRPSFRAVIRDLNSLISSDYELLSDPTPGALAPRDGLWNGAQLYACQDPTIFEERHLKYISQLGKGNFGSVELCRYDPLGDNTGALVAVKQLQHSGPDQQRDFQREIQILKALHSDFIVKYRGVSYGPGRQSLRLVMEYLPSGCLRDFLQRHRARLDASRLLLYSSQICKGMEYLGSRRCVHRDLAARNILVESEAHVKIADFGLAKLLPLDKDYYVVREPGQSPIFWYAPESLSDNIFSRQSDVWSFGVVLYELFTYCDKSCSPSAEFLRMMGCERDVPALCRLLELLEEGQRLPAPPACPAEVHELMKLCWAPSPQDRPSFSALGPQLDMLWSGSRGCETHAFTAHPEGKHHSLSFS
Description: (§1) Biological effect: intracytoplasmic JAK 1,2,3 enzymatic inhibitory activity IC50 assay
(§2) JAK1 buffer solution: 25 mM HEPES, pH 7.5, 0.01% Brij-35, 0.01 M Triton. JAK2,3 buffer solution: 50 mM HEPES, pH 7.5, 0.0015% Brij-35.
(§3) 2. Compound was formulated in 100% DMSO in a concentration gradient, deposited to a 384-well plate with a final concentration of 2% of DMSO.
3. JAK2,3 enzymes were diluted to having an optimum concentration with the following buffer: 50 mM HEPES, pH 7.5, 0.0015% Brij-35, 2 mM DTT. JAK1 enzyme was diluted to having an optimum concentration with the following buffer: 25 mM HEPES, pH 7.5, 0.01% Brij-35, 2 mM DTT, 0.01M Triton. Then they were transferred to a 384-well plate and incubated with the compound for a certain time. […]
(§4) 5. Read the conversion rate by Caliper Reader, and the inhibition rate are calculated according to the average of two tests.

JAK2 = JAK2 (Homo sapiens, UniProt O60674); experiment: JAK 2 enzymatic inhibitory activity IC50 assay (Caliper conversion rate); conditions: Km ATP, 28° C., 1 hour
Description: as §1, §2, §3
(§5) 3. JAK2,3 enzymes were diluted to having an optimum concentration with the following buffer: 50 mM HEPES, pH 7.5, 0.0015% Brij-35, 2 mM DTT. JAK1 enzyme was diluted to having an optimum concentration with the following buffer: 25 mM HEPES, pH 7.5, 0.01% Brij-35, 2 mM DTT, 0.01M Triton. Then they were transferred to a 384-well plate and incubated with the compound for a certain time.
(§6) 4. JAK2,3 substrate was diluted to having an optimum concentration with the following buffer: 50 mM HEPES, pH 7.5, 0.0015% Brij-35, 10 mM MgCl2, Km adenosine triphosphate. JAK1 substrate was diluted to having an optimum concentration with the following buffer: 25 mM HEPES, pH 7.5, 0.01% Brij-35, 10 mM MgCl2, 0.01 M Triton. Km adenosine triphosphate was added into 384-well plates to initiate reactions, and the reaction were carried out at 28° C. for 1 hour.
as §4

JAK1 = JAK1 (Homo sapiens, UniProt P23458); experiment: JAK 1 enzymatic inhibitory activity IC50 assay (Caliper conversion rate); conditions: Km ATP, 28° C., 1 hour
Description: as §1, §2, §3, §5, §6, §4

Chain of JAK2 (O60674 whole entry, species assumed): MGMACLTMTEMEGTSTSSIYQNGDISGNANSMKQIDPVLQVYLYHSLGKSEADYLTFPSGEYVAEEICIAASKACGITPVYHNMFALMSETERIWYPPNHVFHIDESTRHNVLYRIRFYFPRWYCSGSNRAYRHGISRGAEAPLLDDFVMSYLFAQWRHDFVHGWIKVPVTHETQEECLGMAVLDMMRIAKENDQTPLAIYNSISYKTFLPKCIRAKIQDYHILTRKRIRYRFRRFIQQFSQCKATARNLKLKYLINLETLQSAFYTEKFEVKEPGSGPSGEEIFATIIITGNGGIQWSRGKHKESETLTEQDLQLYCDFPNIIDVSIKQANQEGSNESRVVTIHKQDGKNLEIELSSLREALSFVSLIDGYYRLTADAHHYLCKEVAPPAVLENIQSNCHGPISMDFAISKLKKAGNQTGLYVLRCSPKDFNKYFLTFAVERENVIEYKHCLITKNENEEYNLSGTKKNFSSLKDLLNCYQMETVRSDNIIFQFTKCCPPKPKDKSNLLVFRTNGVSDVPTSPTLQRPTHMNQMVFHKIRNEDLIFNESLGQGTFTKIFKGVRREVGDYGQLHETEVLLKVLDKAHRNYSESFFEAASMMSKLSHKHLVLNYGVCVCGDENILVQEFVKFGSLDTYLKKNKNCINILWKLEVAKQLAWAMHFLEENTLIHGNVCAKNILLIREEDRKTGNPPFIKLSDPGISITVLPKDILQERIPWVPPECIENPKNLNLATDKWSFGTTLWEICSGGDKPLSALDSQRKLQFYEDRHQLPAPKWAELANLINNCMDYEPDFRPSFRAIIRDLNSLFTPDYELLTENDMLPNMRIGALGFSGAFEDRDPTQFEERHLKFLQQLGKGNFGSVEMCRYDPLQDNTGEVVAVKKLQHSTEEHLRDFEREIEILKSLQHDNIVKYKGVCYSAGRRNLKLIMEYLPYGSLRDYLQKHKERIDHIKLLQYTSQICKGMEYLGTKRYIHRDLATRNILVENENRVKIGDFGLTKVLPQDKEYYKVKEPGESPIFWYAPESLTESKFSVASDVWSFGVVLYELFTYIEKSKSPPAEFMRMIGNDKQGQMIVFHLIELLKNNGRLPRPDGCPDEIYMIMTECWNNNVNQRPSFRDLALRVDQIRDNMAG
Chain of JAK1 (P23458 whole entry, species assumed): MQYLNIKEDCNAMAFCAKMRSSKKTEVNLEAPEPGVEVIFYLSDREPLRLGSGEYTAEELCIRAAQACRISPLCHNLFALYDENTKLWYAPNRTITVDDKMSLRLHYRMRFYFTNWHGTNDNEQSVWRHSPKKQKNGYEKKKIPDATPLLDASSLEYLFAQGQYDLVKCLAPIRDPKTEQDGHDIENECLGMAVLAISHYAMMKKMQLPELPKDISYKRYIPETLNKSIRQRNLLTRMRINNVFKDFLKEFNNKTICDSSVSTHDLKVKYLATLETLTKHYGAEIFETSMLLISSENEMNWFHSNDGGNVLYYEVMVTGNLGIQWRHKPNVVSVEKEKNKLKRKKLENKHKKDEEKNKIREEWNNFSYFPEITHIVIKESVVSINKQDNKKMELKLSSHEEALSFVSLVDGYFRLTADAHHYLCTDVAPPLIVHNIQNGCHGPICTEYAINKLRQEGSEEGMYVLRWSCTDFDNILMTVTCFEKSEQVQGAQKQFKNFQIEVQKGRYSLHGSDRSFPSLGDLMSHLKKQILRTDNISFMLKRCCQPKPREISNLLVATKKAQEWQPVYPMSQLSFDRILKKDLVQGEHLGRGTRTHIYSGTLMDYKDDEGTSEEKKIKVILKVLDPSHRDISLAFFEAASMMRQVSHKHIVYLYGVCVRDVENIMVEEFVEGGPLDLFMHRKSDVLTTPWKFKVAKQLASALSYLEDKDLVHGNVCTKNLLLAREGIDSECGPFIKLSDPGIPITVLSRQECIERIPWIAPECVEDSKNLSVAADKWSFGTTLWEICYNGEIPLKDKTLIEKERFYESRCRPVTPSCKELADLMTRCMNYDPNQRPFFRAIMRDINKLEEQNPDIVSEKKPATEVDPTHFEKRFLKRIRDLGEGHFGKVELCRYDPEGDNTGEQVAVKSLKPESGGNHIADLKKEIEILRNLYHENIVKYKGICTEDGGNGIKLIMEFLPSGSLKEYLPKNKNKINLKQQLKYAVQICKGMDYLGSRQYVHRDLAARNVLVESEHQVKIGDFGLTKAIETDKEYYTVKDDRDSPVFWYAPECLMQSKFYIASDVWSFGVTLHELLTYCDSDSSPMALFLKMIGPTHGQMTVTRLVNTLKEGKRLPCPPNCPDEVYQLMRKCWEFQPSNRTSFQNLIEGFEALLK

Row | SMILES | IC50 (JAK3) [nM] | IC50 (JAK2) [nM] | IC50 (JAK1) [nM]
1 | CCS(=O)(=O)N1CC(CC#N)(n2cc(-c3nc(Nc4ccc(S(C)(=O)=O)cc4)nc4sccc34)cn2)C1 [Compound T-18, 2-(1-(Ethylsulfonyl)-3-(4-(2-((4-(methylsulfonyl)phenyl)amino)thieno[2,3-d]pyrimidin-4-yl)-1H-pyrazol-1-yl)azetidin-3-yl)acetonitrile] | 500 to 1000 | < 50 | 50 to 500
2 | CCS(=O)(=O)N1CC(CC#N)(n2cc(-c3nc(Nc4ccc(C#N)cc4)nc4ccsc34)cn2)C1 [Compound T-19, 4-((4-(1-(3-(Cyanomethyl)-1-(ethylsulfonyl)azetidin-3-yl)-1H-pyrazol-4-yl)thieno[3,2-d]pyrimidin-2-yl)amino)benzonitrile] | 50 to 500 | < 50 | 50 to 500
3 | N#CCC1(n2cc(-c3nc(Nc4ccccc4)nc4ccsc34)cn2)COC1 [Compound T-20, 2-(3-(4-(2-(Phenylamino)thieno[3,2-d]pyrimidin-4-yl)-1H-pyrazol-1-yl)oxetan-3-yl)acetonitrile] | 500 to 1000 | < 50 | 50 to 500
4 | CCS(=O)(=O)N1CC(CC#N)(n2cc(-c3nc(Nc4ccncc4)nc4ccsc34)cn2)C1 [Compound T-21, 2-(1-(Ethylsulfonyl)-3-(4-(2-(pyridin-4-ylamino)thieno[3,2-d]pyrimidin-4-yl)-1H-pyrazol-1-yl)azetidin-3-yl)acetonitrile] | 50 to 500 | < 50 | 50 to 500
5 | CCS(=O)(=O)N1CC(CC#N)(n2cc(-c3nc(Nc4ccc(C#N)nc4)nc4ccsc34)cn2)C1 [Compound T-22, 5-((4-(1-(3-(Cyanomethyl)-1-(ethylsulfonyl)azetidin-3-yl)-1H-pyrazol-4-yl)thieno[3,2-d]pyrimidin-2-yl)amino)picolinonitrile] | > 1000 | < 50 | > 1000
6 | CCS(=O)(=O)N1CC(CC#N)(n2cc(-c3nc(Nc4ccccc4)nc4cc(C)sc34)cn2)C1 [Compound T-23, 2-(1-(Ethylsulfonyl)-3-(4-(6-methyl-2-(phenylamino)thieno[3,2-d]pyrimidin-4-yl)-1H-pyrazol-1-yl)azetidin-3-yl)acetonitrile] | > 1000 | > 1000 | > 1000
7 | CCS(=O)(=O)N1CC(CC#N)(n2cc(-c3nc(Nc4ccn(C)n4)nc4ccsc34)cn2)C1 [Compound T-25, 2-(1-(Ethylsulfonyl)-3-(4-(2-((1-methyl-1H-pyrazol-3-yl)amino)thieno[3,2-d]pyrimidin-4-yl)-1H-pyrazol-1-yl)azetidin-3-yl)acetonitrile] | 50 to 500 | < 50 | < 50
8 | CCS(=O)(=O)N1CC(CC#N)(n2cc(-c3nc(Nc4cccnc4)nc4ccsc34)cn2)C1 [Compound T-26, 2-(1-(Ethylsulfonyl)-3-(4-(2-(pyridin-3-ylamino)thieno[3,2-d]pyrimidin-4-yl)-1-pyrazol-1-yl)azetidin-3-yl)acetonitrile] | 50 to 500 | < 50 | < 50
9 | CCS(=O)(=O)N1CC(CC#N)(n2cc(-c3nc(NC4CC4)nc4ccsc34)cn2)C1 [Compound T-28, 2-(3-(4-(2-(Cyclopropylamino)thieno[3,2-d]pyrimidin-4-yl)-1H-pyrazol-1-yl)-1-(ethylsulfonyl)azetidin-3-yl)acetonitrile] | > 1000 | > 1000 | > 1000
10 | CCS(=O)(=O)N1CC(CC#N)(n2cc(-c3nc(NC(=O)C4CC4)nc4ccsc34)cn2)C1 [Compound T-29, N-(4-(1-(3-(Cyanomethyl)-1-(ethylsulfonyl)azetidin-3-yl)-1H-pyrazol-4-yl)thieno[3,2-d]pyrimidin-2-yl)cyclopropanecarboxamide] | > 1000 | < 50 | 50 to 500
11 | CCS(=O)(=O)N1CC(CC#N)(n2cc(-c3nc(Nc4ccccc4)nc4ccoc34)cn2)C1 [Compound T-30, 2-(1-(Ethylsulfonyl)-3-(4-(2-(phenylamino)furo[3,2-d]pyrimidin-4-yl)-1H-pyrazol-1-yl)azetidin-3-yl)acetonitrile] | 50 to 500 | < 50 | 50 to 500
12 | CCS(=O)(=O)N1CC(CC#N)(n2cc(-c3nc(Nc4cn[nH]c4)nc4ccsc34)cn2)C1 [Compound T-31, 2-(3-(4-(2-((1H-Pyrazol-4-yl)amino)thieno[3,2-d]pyrimidin-4-yl)-1H-pyrazol-1-yl)-1-(ethylsulfonyl)azetidin-3-yl)acetonitrile] | 50 to 500 | < 50 | < 50
13 | CCS(=O)(=O)N1CC(CC#N)(n2cc(-c3nc(Nc4cnn(C(=O)COC)c4)nc4ccsc34)cn2)C1 [Compound T-32, 2-(1-(Ethylsulfonyl)-3-(4-(2-((1-(2-methoxyacetyl)-1H-pyrazol-4-yl)amino)thieno[3,2-d]pyrimidin-4-yl)-1H-pyrazol-1-yl)azetidin-3-yl)acetonitrile] | < 50 | < 50 | < 50
14 | CCS(=O)(=O)N1CC(CC#N)(n2cc(-c3nc(Nc4cnn(CC(=O)O)c4)nc4ccsc34)cn2)C1 [Compound T-33, 2-(4-((4-(1-(3-(Cyanomethyl)-1-(ethylsulfonyl)azetidin-3-yl)-1H-pyrazol-4-yl)thieno[3,2-d]pyrimidin-2-yl)amino)-1H-pyrazol-1-yl)acetic acid] | 50 to 500 | < 50 | < 50
15 | CCCCOC(=O)CCn1cc(Nc2nc(-c3cnn(C4(CC#N)CN(S(=O)(=O)CC)C4)c3)c3sccc3n2)cn1 [Compound T-34, Butyl 3-(4-((4-(1-(3-(cyanomethyl)-1-(ethylsulfonyl)azetidin-3-yl)-1H-pyrazol-4-yl)thieno[3,2-d]pyrimidin-2-yl)amino)-1H-pyrazol-1-yl)propanoate] | 50 to 500 | < 50 | 50 to 500
16 | CCS(=O)(=O)N1CC(CC#N)(n2cc(-c3nc(Nc4cnn(CCC(=O)O)c4)nc4ccsc34)cn2)C1 [Compound T-35, 3-(4-((4-(1-(3-(Cyanomethyl)-1-(ethylsulfonyl)azetidin-3-yl)-1H-pyrazol-4-yl)thieno[3,2-d]pyrimidin-2-yl)amino)-1H-pyrazol-1-yl)propanoic acid] | 50 to 500 | < 50 | < 50
17 | CCS(=O)(=O)N1CC(CC#N)(n2cc(-c3nc(Nc4cnn(CCC(=O)N(C)C)c4)nc4ccsc34)cn2)C1 [Compound T-36, 3-(4-((4-(1-(3-(Cyanomethyl)-1-(ethylsulfonyl)azetidin-3-yl)-1H-pyrazol-4-yl)thieno[3,2-d]pyrimidin-2-yl)amino)-1H-pyrazol-1-yl)-N,N-dimethylpropanamide] | < 50 | < 50 | 50 to 500
18 | CCS(=O)(=O)N1CC(CC#N)(n2cc(-c3nc(Nc4cnn(CCCC(=O)N(C)C)c4)nc4ccsc34)cn2)C1 [Compound T-37, 4-(4-((4-(1-(3-(Cyanomethyl)-1-(ethylsulfonyl)azetidin-3-yl)-1H-pyrazol-4-yl)thieno[3,2-d]pyrimidin-2-yl)amino)-1H-pyrazol-1-yl)-N,N-dimethylbutanamide] | < 50 | < 50 | < 50
